Measured values from ChEMBL document CHEMBL4196012 (Eur J Med Chem, 2018).
Converted amounts (≈) assume the structure as drawn.

Key:
Escherichia coli [1] = experiment: Antibacterial activity against Escherichia coli ATCC 35218 after 18 to 24 hrs by double microdilution method; type: functional
[2] = tested on: Mycolicibacterium smegmatis; experiment: Antibacterial activity against Mycobacterium smegmatis ATCC 607 after 48 to 72 hrs by double microdilution method; type: functional
Enterococcus faecalis = experiment: Antibacterial activity against Enterococcus faecalis ATCC 29212 after 18 to 24 hrs by double microdilution method; type: functional
[3] = tested on: Yersinia pseudotuberculosis; experiment: Antibacterial activity against Yersinia pseudotuberculosis ATCC 911 after 18 to 24 hrs by double microdilution method; type: functional
Pseudomonas aeruginosa [4] = experiment: Antibacterial activity against Pseudomonas aeruginosa ATCC 10145 after 18 to 24 hrs by double microdilution method; type: functional
Bacillus cereus = experiment: Antibacterial activity against Bacillus cereus 709 Roma after 18 to 24 hrs by double microdilution method; type: functional
Staphylococcus aureus [5] = experiment: Antibacterial activity against Staphylococcus aureus ATCC 25923 after 18 to 24 hrs by double microdilution method; type: functional
Escherichia coli [6] = experiment: Antibacterial activity against Escherichia coli ATCC […] by CLSI agar dilution method; type: functional
Staphylococcus aureus [7] = experiment: Antibacterial activity against Staphylococcus aureus ATCC 29213 by CLSI agar dilution method; type: functional
Staphylococcus aureus [8] = experiment: Antibacterial activity against methicillin-sensitive Staphylococcus aureus by CLSI agar dilution method; type: functional
[9] = tested on: Staphylococcus epidermidis; experiment: Antibacterial activity against methicillin-sensitive Staphylococcus epidermidis by CLSI agar dilution method; type: functional
[10] = tested on: Staphylococcus epidermidis; experiment: Antibacterial activity against Staphylococcus epidermidis ATCC 12228 by CLSI agar dilution method; type: functional
Klebsiella pneumoniae = experiment: Antibacterial activity against Klebsiella pneumoniae ATCC […] by CLSI agar dilution method; type: functional
Escherichia coli [11] = experiment: Antibacterial activity against Escherichia coli ATCC 25922 after 18 to 24 hrs by double microdilution method; type: functional
Pseudomonas aeruginosa [12] = experiment: Antibacterial activity against Pseudomonas aeruginosa ATCC 43288 after 18 to 24 hrs by double microdilution method; type: functional
[13] = Partition coefficient, log P of the compound; type: physicochemical; details: octanol/water
Staphylococcus aureus [14] = experiment: Antibacterial activity against Staphylococcus aureus NCDC 110 after overnight incubation by single disc method; type: functional
Bacillus subtilis = experiment: Antibacterial activity against Bacillus subtilis NCDC 71 after overnight incubation by single disc method; type: functional
Paenibacillus polymyxa = experiment: Antibacterial activity against Paenibacillus polymyxa NCDC 64 after overnight incubation by single disc method; type: functional
Escherichia coli [15] = experiment: Antibacterial activity against Escherichia coli NCDC 134 after overnight incubation by single disc method; type: functional
Pseudomonas aeruginosa [16] = experiment: Antibacterial activity against Pseudomonas aeruginosa NCDC105 after overnight incubation by single disc method; type: functional

In the case of `O=C(O)c1cn(C2CC2)c2cc(N3CCN(Cn4nc(CNc5ccc(N6CCN(c7ccc(F)cc7)CC6)c(F)c5)n(-c5ccccc5)c4=S)CC3)c(F)cc2c1=O`, the MIC (Escherichia coli [1]) was < 0.24 µg/mL, the MIC [2] was < 0.24 µg/mL and the MIC (Enterococcus faecalis) was < 0.24 µg/mL. For the same compound, the MIC [3] was < 0.24 µg/mL, the MIC (Pseudomonas aeruginosa [4]) was < 0.24 µg/mL and the MIC (Bacillus cereus) was < 0.24 µg/mL. The MIC (Staphylococcus aureus [5]) was < 0.24 µg/mL.
In the case of `COc1ccccc1N1CCN(Cc2nn(CN3CCN(c4cc5c(cc4F)c(=O)c(C(=O)O)cn5C4CC4)CC3)c(=S)n2-c2ccccc2)CC1`, the MIC (Escherichia coli [1]) was < 0.24 µg/mL, the MIC [2] was < 0.24 µg/mL and the MIC (Enterococcus faecalis) was < 0.24 µg/mL. For the same compound, the MIC [3] was < 0.24 µg/mL, the MIC (Pseudomonas aeruginosa [4]) was < 0.24 µg/mL and the MIC (Bacillus cereus) was < 0.24 µg/mL. The MIC (Staphylococcus aureus [5]) was < 0.24 µg/mL.
Work on `O=C(O)c1cn(C2CC2)c2cc(N3CCN(CC(O)Cn4cc([N+](=O)[O-])nc4Cl)CC3)c(F)cc2c1=O` (stereo unspecified) yielded an MIC (Escherichia coli [6]) of 2 to 32 µg/mL (≈ 3.74 to 59.8 µM), an MIC (Staphylococcus aureus [7]) of 2 to 32 µg/mL (≈ 3.74 to 59.8 µM) and an MIC (Staphylococcus aureus [8]) of 2 to 32 µg/mL (≈ 3.74 to 59.8 µM). The MIC [9] was 2 to 32 µg/mL (≈ 3.74 to 59.8 µM), the MIC [10] was 2 to 32 µg/mL (≈ 3.74 to 59.8 µM) and the MIC (Klebsiella pneumoniae) was 2 to 32 µg/mL (≈ 3.74 to 59.8 µM).
Work on `CC1(C)S[C@@H]2[C@H](NC(=O)[C@H](N)c3ccccc3)C(=O)N2[C@H]1C(=O)O` [AMPICILLIN] yielded an MIC (Escherichia coli [1]) of 3.9 to 250 µg/mL (≈ 11.2 to 715 µM), an MIC [2] of 10 to 128 µg/mL (≈ 28.6 to 366 µM) and an MIC (Enterococcus faecalis) of 10 to 128 µg/mL (≈ 28.6 to 366 µM). For the same compound, the MIC [3] was 10 to 128 µg/mL (≈ 28.6 to 366 µM), the MIC (Pseudomonas aeruginosa [4]) was 3.9 to 250 µg/mL (≈ 11.2 to 715 µM) and the MIC (Escherichia coli [11]) was 10 to 128 µg/mL (≈ 28.6 to 366 µM). The MIC (Bacillus cereus) was 10 to 128 µg/mL (≈ 28.6 to 366 µM), the MIC (Pseudomonas aeruginosa [12]) was 10 to 128 µg/mL (≈ 28.6 to 366 µM) and the MIC (Staphylococcus aureus [5]) was 10 to 128 µg/mL (≈ 28.6 to 366 µM).
Work on `CCOC(=O)c1cn(C2CC2)c2cc(N3CCNCC3)c(F)cc2c1=O` [CIPROFLOXACIN ETHYL ESTER] yielded a logP [13] of -0.065.
With `COc1c(N2CCNC(C)C2)c(F)cc2c(=O)c(C(=O)O)cn(C3CC3)c12` (stereo unspecified) [GATIFLOXACIN] the MIC (Escherichia coli [6]) was 0.06 to 16 µg/mL (≈ 0.16 to 42.6 µM), the MIC (Staphylococcus aureus [7]) was 0.06 to 16 µg/mL (≈ 0.16 to 42.6 µM) and the MIC (Staphylococcus aureus [14]) was 5 to 100 µg/mL (≈ 13.3 to 266 µM). It also gave an MIC (Staphylococcus aureus [8]) of 0.06 to 16 µg/mL (≈ 0.16 to 42.6 µM), an MIC (Bacillus subtilis) of 5 to 100 µg/mL (≈ 13.3 to 266 µM) and an MIC (Paenibacillus polymyxa) of 5 to 100 µg/mL (≈ 13.3 to 266 µM). For the same compound, the MIC (Escherichia coli [15]) was 5 to 100 µg/mL (≈ 13.3 to 266 µM), the MIC [9] was 0.06 to 16 µg/mL (≈ 0.16 to 42.6 µM) and the MIC [10] was 0.06 to 16 µg/mL (≈ 0.16 to 42.6 µM). The MIC (Pseudomonas aeruginosa [16]) was 5 to 100 µg/mL (≈ 13.3 to 266 µM) and the MIC (Klebsiella pneumoniae) was 0.06 to 16 µg/mL (≈ 0.16 to 42.6 µM).
